{"source": "patent US6821516B1", "about": "“Macrophages, process for preparing the same and their use as active substances of pharmaceutical compositions” (I.D.M. Immuno-Designed Molecules, priority 1993, dated 2004)", "test_system": "U937 tumor cells", "assay": "In vitro antitumoral assay: inhibition of 3H-thymidine incorporation by U937 tumor cells, macrophage/U937 ratio 1/1", "format": "cell-based, human", "conditions": "mean and standard error of 8 preparations", "description": "The “cytotoxic activity” corresponds to the one measured as the percentage of inhibition of 3-H thymidine incorporation by target tumoral cells, particularly U937 cells, and a test for this measure is hereafter given:\nDifferentiated macrophages were seeded into 96-well flat microtiter plates at 10^4 macrophages/well in 0.2 ml. After 2 h incubation at 37° C. in 5% CO2 humidified atmosphere, the medium was removed and replaced by IMDM+5% hu AB serum containing or not 250 U/ml of rhu IFNγ; plates were further incubated overnight. After washing, 10^4 U937 tumor cells in 0.2 ml fresh medium (IMDM+10% FCS) were added to each well. After 24 h contact, 0.1 μCi of tritiated thymidine was added to each well for a further 24 h incubation.\nThe cells were collected and the determination of incorporated radioactivity on the fiber glass filters was carried out by β counting. The percentage inhibition of thymidine incorporation by tumor cells could be calculated according to the formula: [formula]\nThe cytotoxic activity is determined with U937 cells, the ratio between macrophages and U937 being of 1/1. […]\nThe cells were collected and the determination of incorporated radioactivity on the fiber glass filters was carried out by β counting. The % inhibition of thymidine incorporation by tumor cells was calculated according the formula: [formula]", "data": [{"substance": "+GM-CSF", "values": [{"measurement": "cytotoxic activity +IFN-γ: % inhibition of 3H-thymidine incorporation by U937 cells", "setting": "after activation with 250 U/ml IFN-γ", "result": "76 +/− 5%"}, {"measurement": "cytotoxic activity −IFN-γ: % inhibition of 3H-thymidine incorporation by U937 cells", "setting": "without IFN-γ activation (spontaneous)", "result": "44 +/− 5%"}]}]}
